Patent US6723715B1, “14, 15-cyclopropanosteroids of the 19-norandrostane series, method for producing said compounds and pharmaceutical preparation containing said compounds” (Schering AG, priority 1999, dated 2004)

Assays:
androgen receptor = target: T1, androgen receptor (Homo sapiens, UniProt P10275); test: binding to the androgen receptor relative to R 1881; conditions: R 1881=100%
T1 sequence (P10275 1-920): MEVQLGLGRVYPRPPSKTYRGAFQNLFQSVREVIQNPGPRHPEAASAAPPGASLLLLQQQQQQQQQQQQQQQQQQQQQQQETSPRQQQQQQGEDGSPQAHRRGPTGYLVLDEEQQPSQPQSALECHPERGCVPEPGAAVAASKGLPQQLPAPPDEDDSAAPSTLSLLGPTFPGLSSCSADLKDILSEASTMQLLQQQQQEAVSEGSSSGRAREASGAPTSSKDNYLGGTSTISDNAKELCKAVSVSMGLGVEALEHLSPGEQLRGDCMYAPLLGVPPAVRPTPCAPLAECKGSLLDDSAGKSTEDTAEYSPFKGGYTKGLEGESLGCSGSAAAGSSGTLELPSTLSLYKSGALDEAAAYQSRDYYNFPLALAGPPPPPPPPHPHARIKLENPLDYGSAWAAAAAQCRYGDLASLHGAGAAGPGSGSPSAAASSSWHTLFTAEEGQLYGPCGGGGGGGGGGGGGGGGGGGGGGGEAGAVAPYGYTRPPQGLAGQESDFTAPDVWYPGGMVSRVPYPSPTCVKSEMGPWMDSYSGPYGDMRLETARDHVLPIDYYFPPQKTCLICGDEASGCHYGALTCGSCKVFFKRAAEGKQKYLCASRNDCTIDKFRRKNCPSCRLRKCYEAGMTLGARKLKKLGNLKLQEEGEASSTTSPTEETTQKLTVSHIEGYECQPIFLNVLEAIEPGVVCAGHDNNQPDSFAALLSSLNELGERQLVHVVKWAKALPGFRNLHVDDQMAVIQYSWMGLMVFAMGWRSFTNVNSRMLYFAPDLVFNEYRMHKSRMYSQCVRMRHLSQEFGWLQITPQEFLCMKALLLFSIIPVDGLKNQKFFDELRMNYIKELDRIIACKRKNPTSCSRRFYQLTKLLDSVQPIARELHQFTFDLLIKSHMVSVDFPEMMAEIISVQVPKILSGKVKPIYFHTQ

progesterone receptor = target: T2, progesterone receptor (Homo sapiens, UniProt P06401); test: binding to the progesterone receptor relative to progesterone; conditions: progesterone=100%
T2 sequence (P06401 1-933): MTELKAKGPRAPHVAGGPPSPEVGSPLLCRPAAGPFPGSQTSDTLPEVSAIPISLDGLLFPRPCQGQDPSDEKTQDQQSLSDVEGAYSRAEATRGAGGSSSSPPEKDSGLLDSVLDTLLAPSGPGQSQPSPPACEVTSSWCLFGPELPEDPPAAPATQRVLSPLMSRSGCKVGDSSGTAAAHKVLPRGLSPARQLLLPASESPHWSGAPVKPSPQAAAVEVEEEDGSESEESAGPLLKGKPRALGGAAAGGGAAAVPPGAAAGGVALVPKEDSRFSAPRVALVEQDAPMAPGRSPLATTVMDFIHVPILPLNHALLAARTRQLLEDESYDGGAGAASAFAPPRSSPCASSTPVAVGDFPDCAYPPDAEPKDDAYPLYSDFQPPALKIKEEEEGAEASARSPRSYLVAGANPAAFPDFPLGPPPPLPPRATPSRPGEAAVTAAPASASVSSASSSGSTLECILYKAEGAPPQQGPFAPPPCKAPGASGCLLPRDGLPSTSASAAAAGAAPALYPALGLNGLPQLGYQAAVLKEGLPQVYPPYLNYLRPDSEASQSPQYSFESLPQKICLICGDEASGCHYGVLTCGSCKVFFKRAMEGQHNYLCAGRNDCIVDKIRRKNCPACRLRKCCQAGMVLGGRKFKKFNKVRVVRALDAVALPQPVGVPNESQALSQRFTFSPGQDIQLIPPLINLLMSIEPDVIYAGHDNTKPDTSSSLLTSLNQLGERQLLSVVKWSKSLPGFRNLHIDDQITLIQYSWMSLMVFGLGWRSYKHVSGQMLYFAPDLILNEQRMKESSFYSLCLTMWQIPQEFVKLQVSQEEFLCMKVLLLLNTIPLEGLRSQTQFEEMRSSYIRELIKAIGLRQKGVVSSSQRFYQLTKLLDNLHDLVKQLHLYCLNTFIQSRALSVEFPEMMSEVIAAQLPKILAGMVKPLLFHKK

Compound	binds to the extent of % to the androgen receptor (androgen receptor)	binds to the extent of % to the progesterone receptor (progesterone receptor)
C[C@]12C=CC3=C4CCC(=O)C=C4CC[C@H]3[C@@]13C[C@H]3C[C@@H]2O [17β-Hydroxy-14α,15α-methylene-estr-4,9,11-triene-3-one]	58%	36%
C[C@]12CC[C@H]3[C@@H](CCC4=C(Cl)C(=O)CC[C@@H]43)[C@@]13C[C@H]3C[C@@H]2O [4-Chloro-17β-hydroxy-14α,15α-methylene-estr-4-ene-3-one]	98%	5.5%
